This assay addresses T1, IaNaR (Indibacter alkaliphilus, UniProt S2D3K4).
T1 construct: gene A33Q_3728; C-terminal His tag, E. coli BL21, vector pKA001, DDM-solubilised, Ni-NTA purified, reconstituted in Egg-PC liposomes
T1 sequence (S2D3K4 1-279): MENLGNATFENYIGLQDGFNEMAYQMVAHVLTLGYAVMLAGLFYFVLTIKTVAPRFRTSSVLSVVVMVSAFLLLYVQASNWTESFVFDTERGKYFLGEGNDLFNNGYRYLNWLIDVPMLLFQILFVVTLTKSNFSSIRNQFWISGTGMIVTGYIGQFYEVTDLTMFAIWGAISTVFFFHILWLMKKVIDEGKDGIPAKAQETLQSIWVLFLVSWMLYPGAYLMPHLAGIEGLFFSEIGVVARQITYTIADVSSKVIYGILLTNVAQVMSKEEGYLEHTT
In words: time-resolved cryo-Raman ([…] nm preresonance) and absorption spectroscopy. The class given is binding. The conditions noted are these: covalent; protonated Schiff base to helix G lysine; dark state all-trans; humidified film, 268 K, pH 8.0, NaCl.

Take `CC1=C(/C=C/C(C)=C/C=C/C(C)=C/C=O)C(C)(C)CCC1` [retinal]: the “time-resolved cryo-Raman (785 nm preresonance) and absorption spectroscopy” value is given as “the vibrational modes of the RSB chromophore were selectively observed due to the preresonance enhancement”.
